From patent US20240208928A1, “NOVEL COMPOUNDS” (Hoffmann-La Roche Inc., priority 2021, published 2024)

Columns and labels:
Assay type in all cases: cell-based
NLRP3 [1] = target: T1, NLRP3 (Homo sapiens, UniProt Q96P20); test: Human whole blood IL-1β release assay; set-up: Human whole blood in Li-heparin tubes was obtained from healthy donors; from tissue; host or cells: human whole blood from healthy donors, LPS-primed, nigericin-stimulated; conditions: 1 μg/ml LPS, nigericin 10 μM, IL-1β by AlphaLisa
Experimental: For systemic delivery, the ability to inhibit NLRP3 when the compounds are present within the bloodstream is of great importance. For this reason, the NLRP3 inhibitory activity of a number of compounds in human whole blood was investigated in accordance with the following protocol.
Human whole blood in Li-heparin tubes was obtained from healthy donors from a volunteer donor panel. • 1. […] Incubate for 3 hrs at 37° C., 5% CO2 • 4. Add 10 μl nigericin (Sigma #N7143) (10 μM FAC) to all wells • 5. Incubate for 1 hr at 37° C., 5% CO2 • 6. At the end of the incubation period, spin plates at 300×g for 5 mins to pellet cells and remove 20 μl of supernatant and add to 96-well v-bottom plates for IL-1β analysis (note: these plates containing the supernatants can be stored at −80° C. to be analysed at a later date) • 7. IL-1β was measured according to the manufacturer protocol (Perkin Elmer-AlphaLisa IL-1 Kit AL220F-5000) • 8. IC50 data is fitted to a non-linear regression equation (log inhibitor vs response-variable slope 4-parameters)

hERG channels = target: T2, hERG channels (Homo sapiens, UniProt Q12809); test: hERG screening assay (automated patch clamp); conditions: CHO crelox hERG cell line, whole-cell patch clamp SynchroPatch 384, 35-37° C.
T2 construct: cryopreserved at Evotec (Germany) ATCC PTA-6812; host or cells: CHO (Chinese hamster) crelox hERG cell line
Text: hERG Screening Assay The CHO crelox hERG cell line (ATCC reference Nr. PTA-6812, female Chinese hamster cells) was generated and validated at Roche. Ready-to-use frozen instant CHO-hERG cells were cryopreserved at Evotec (Germany) and used directly in the experiments. The extracellular solution contains (in mM): NaCl 150; KCl 4; CaCl2 1; MgCl2 1; HEPES 10; pH 7.2-7.4 with NaOH, osmolarity 290-330 mOsm. The internal solution contains (in mM): KCl, 10; KF, 100; NaCl, 10; HEPES, 10; EGTA, 20; pH=7.0-7.4 with KOH, osmolarity 260-300 mOsm. The effects of a compound on hERG K+-currents parameters will be evaluated at 2 concentrations in at least 4 cells. The hERG test is performed using automated patch clamp system SynchroPatch® 384 (Nanion Technologies GmbH, Germany). K+ currents are measured with the patch-voltage-clamp technique in the whole-cell configuration at 35-37° C. Cells were held at a resting voltage of −80 mV and they were stimulated by a voltage pattern shown in FIG. 1 to activate hERG channels and conduct outward IKhERG current, at a stimulation frequency of 0.1 Hz (6 bpm) The amplitudes of IKhERG were recorded in each concentration of drug and they were compared to the vehicle control values (taken as 100%) to define fractional blocks. The concentration-response data were fitted with the following relationship: where C is the concentration, • IC50 is the concentration producing 50% block • h is the Hill coefficient. Concentration-response curves were fitted by non-linear regression analysis using EworkBook suite (ID Business Solutions Ltd, UK). Data fit was done with the 4 Parameter Logistic Model (fit=(A+(B/(1+((x/C)^D)))), where A=0 and B=100).

NLRP3 [2] = target: T1, NLRP3; test: THP-1 cells pyroptosis assay; set-up: Seed THP-1 cells (25,000 cells/well) containing 1.0 μg/ml LPS; host or cells: THP-1 cells, LPS-primed, nigericin-stimulated; conditions: 1.0 μg/ml LPS, nigericin 5 μM, resazurin readout
Experimental: The cells were routinely passaged and grown to confluency (˜10^6 cells/ml). On the day of the experiment, THP-1 cells were harvested and resuspended into RPMI medium (without FBS). […] To this diluted cell solution was added LPS (Sigma #L4524) to give a 1 μg/ml Final Assay Concentration (FAC). 40 μl of the final preparation was aliquoted into each well of a 96-well plate. The plate thus prepared was used for compound screening.
The following method step-by-step assay was followed for compound screening. • 1. […] Incubate for 3 hrs at 37° C., 5% CO2 • 4. Add 5 μl nigericin (Sigma #N7143) (FAC 5 μM) to all wells • 5. Incubate for 1 hr at 37° C., 5% CO2 • 6. At the end of the incubation period, spin plates at 300×g for 3 mins and remove supernatant • 7. Then add 50 μl of resazurin (Sigma #R7017) (FAC 100 μM resazurin in RPMI medium without FBS) and incubate plates for a further 1-2 hrs at 37° C. and 5% CO2 • 8. […] IC50 data is fitted to a non-linear regression equation (log inhibitor vs response-variable slope 4-parameters)

T2 sequence (Q12809 whole entry): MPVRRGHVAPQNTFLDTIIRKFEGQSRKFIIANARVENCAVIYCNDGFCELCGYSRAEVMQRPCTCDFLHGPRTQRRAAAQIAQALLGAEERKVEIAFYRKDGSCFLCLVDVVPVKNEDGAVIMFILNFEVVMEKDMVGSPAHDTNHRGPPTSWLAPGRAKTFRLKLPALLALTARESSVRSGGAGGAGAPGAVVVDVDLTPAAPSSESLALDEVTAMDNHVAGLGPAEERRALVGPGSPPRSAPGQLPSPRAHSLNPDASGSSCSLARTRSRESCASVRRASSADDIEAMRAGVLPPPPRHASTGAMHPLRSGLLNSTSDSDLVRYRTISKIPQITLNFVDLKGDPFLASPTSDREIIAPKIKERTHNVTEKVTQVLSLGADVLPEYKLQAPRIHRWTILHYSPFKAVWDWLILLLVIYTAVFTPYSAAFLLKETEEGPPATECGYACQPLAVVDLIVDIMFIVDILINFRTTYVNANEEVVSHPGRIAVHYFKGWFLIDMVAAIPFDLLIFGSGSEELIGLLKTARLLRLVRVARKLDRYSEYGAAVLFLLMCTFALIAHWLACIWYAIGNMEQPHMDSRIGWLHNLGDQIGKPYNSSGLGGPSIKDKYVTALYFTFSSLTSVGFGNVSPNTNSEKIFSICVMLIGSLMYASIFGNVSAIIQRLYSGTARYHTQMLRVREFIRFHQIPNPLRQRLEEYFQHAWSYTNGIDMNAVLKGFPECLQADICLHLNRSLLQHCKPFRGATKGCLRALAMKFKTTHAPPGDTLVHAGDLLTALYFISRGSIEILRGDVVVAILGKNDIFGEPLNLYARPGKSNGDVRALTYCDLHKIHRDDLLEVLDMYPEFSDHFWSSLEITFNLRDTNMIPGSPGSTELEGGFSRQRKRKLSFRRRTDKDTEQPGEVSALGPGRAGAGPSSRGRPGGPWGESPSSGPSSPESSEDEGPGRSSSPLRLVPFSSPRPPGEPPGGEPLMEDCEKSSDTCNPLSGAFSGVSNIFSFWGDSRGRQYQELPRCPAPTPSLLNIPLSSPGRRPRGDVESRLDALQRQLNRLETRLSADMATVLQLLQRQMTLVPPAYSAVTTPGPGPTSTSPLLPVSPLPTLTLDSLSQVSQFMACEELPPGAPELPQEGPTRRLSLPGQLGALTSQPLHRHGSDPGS
T1 sequence (Q96P20 whole entry): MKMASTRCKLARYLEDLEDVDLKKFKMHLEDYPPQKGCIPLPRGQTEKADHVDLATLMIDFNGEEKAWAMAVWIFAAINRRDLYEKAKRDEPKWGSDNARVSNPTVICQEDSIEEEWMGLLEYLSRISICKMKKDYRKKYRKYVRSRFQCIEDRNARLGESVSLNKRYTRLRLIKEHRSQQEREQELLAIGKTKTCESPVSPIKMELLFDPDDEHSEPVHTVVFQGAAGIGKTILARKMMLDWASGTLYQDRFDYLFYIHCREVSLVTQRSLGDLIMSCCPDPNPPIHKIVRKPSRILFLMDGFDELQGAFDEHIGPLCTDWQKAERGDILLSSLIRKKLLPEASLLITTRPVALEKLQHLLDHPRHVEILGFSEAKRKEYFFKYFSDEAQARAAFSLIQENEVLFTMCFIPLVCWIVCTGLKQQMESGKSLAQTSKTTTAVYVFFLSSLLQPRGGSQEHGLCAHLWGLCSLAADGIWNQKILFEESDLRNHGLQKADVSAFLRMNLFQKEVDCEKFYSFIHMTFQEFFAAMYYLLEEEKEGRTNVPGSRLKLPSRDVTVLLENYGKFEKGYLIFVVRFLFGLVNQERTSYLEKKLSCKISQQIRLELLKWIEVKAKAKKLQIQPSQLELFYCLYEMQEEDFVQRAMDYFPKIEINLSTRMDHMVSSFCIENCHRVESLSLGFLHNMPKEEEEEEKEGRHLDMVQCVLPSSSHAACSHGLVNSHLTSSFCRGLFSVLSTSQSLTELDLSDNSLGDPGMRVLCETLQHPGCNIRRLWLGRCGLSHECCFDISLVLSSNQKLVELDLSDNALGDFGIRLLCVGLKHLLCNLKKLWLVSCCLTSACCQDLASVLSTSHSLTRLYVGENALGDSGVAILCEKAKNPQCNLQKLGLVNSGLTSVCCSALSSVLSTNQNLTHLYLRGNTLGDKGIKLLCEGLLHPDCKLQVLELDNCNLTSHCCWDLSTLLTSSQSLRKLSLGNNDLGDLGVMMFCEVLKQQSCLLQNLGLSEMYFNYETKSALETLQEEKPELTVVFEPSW

| Compound | IC50 (NLRP3 [1]) | IC50 (hERG channels) | IC50 (NLRP3 [2]) |
| --- | --- | --- | --- |
| CCN1CCCC(Nc2nnc(-c3ccc(C(F)(F)F)cc3O)n(C)c2=O)C1 (stereo not drawn) [Example 1, 6-((1-ethylpiperidin-3-yl)amino)-3-(2-hydroxy-4-(trifluoromethyl)phenyl)-4-methyl-1,2,4-triazin-5(4H)-one] | 35 nM | > 20000 nM | 44 nM |
| CCN1CCCC(Nc2cc(C)c(-c3ccc(C(F)(F)F)cc3O)nn2)C1 (stereo not drawn) [RE-A, 2-[6-[(1-ethyl-3-piperidyl)amino]-4-methyl-pyridazin-3-yl]-5-(trifluoromethyl)phenol, reference compound] | – | 1200 nM | – |
| CCN1CCC[C@@H](Nc2nnc(-c3c(C)cc(C(F)(F)F)cc3O)n(C)c2=O)C1 [Example 28, 6-[[(3R)-1-Ethyl-3-piperidyl]amino]-3-[2-hydroxy-6-methyl-4-(trifluoromethyl)phenyl]-4-methyl-1,2,4-triazin-5-one] | 31 nM | > 20000 nM | 13 nM |
| CCN1CCC[C@@H](Nc2nnc(-c3ccc(F)cc3O)n(C)c2=O)C1 [Example 21, 6-[[(3R)-1-Ethyl-3-piperidyl]amino]-3-(4-fluoro-2-hydroxy-phenyl)-4-methyl-1,2,4-triazin-5-one] | 28 nM | > 20000 nM | 58 nM |
| CCN1CCC[C@@H](Nc2nnc(-c3ccc(C(F)(F)F)cc3O)n(C)c2=O)C1 [Example 19, 6-[[(3R)-1-Ethyl-3-piperidyl]amino]-3-[2-hydroxy-4-(trifluoromethyl)phenyl]-4-methyl-1,2,4-triazin-5-one;2,2,2-trifluoroacetic Acid] | 9.5 nM | > 20000 nM | 10 nM |
| Cn1c(-c2ccc(C(F)(F)F)cc2O)nnc(NC2CCCN3CCCC23)c1=O (stereo not drawn) [Example 7, 6-(1,2,3,5,6,7,8,8a-Octahydroindolizin-8-ylamino)-3-[2-hydroxy-4-(trifluoromethyl)phenyl]-4-methyl-1,2,4-triazin-5-one;2,2,2-trifluoroacetic Acid] | 86 nM | – | 51 nM |
| CN1CCC[C@@H](Nc2nnc(-c3ccc(OC(F)(F)F)cc3O)n(C)c2=O)C1 [Example 34, 3-[2-Hydroxy-4-(trifluoromethoxy)phenyl]-4-methyl-6-[[(3R)-1-methyl-3-piperidyl]amino]-1,2,4-triazin-5-one] | 35.2 nM | – | 13.1 nM |
| CCN1CCC[C@@H](Nc2nnc(-c3ccc(OC(F)F)cc3O)n(C)c2=O)C1 [Example 23, 3-[4-(Difluoromethoxy)-2-hydroxy-phenyl]-6-[[(3R)-1-ethyl-3-piperidyl]amino]-4-methyl-1,2,4-triazin-5-one; Formic Acid] | 6.5 nM | – | 8.1 nM |
| CCN1CCC[C@@H](Nc2nnc(-c3ccc4c(c3O)CCO4)n(C)c2=O)C1 [Example 2, 6-[[(3R)-1-Ethyl-3-piperidyl]amino]-3-(4-hydroxy-2,3-dihydrobenzofuran-5-yl)-4-methyl-1,2,4-triazin-5-one] | – | > 20000 nM | – |
| CCN1CCC[C@@H](Nc2nnc(-c3ccc(OC(F)(F)F)cc3O)n(C)c2=O)C1 [Example 27, 6-[[(3R)-1-Ethyl-3-piperidyl]amino]-3-[2-hydroxy-4-(trifluoromethoxy)phenyl]-4-methyl-1,2,4-triazin-5-one] | 14 nM | > 20000 nM | 12 nM |
| Cn1c(-c2ccc(C(F)(F)F)cc2O)nnc(N[C@@H]2CCCN(C3CC3)C2)c1=O [Example 10, (R)-6-((1-Cyclopropylpiperidin-3-yl)amino)-3-(2-hydroxy-4-(trifluoromethyl)phenyl)-4-methyl-1,2,4-triazin-5(4H)-one] | 170 nM | > 20000 nM | 39 nM |
| CCN1CCC[C@@H](Nc2nnc(-c3ccc(Cl)cc3O)n(C)c2=O)C1 [Example 33, 3-(4-Chloro-2-hydroxy-phenyl)-6-[[(3R)-1-ethyl-3-piperidyl]amino]-4-methyl-1,2,4-triazin-5-one] | – | > 20000 nM | – |
